Assay results reported in paper PMC10855164, “Ligand-Based Design of Selective Peptidomimetic uPA and TMPRSS2 Inhibitors with Arg Bioisosteres” (International Journal of Molecular Sciences, 2024).
Values joined by “and” are separate entries in the source; they are usually repeats but may differ in a detail not shown here. Equal entries are not always repeated.

Experiments:
Type in all cases: biochemical
uPA = biological target: T1, uPA (Homo sapiens, UniProt P00749); assay: fluorometric enzyme inhibition assay, uPA (Z-Gly-Gly-Arg-AMC); conditions: for Ki / Ki uPA: from IC50 by Cheng-Prusoff, n.a. = not active, <80% inhibition at 20 µM; for Selectivity index [SI] uPA: quotient Ki uPA / Ki TMPRSS2
T1 construct: purchased Sigma Aldrich
Procedure: (§1) The inhibitory activity of the synthesized compounds towards the respective main- and off-target proteases was measured via fluorometric and colorimetric assays. Thus, fluorogenic AMC- or colorimetric pNA-based substrates with a peptide sequence suitable for the tested protease were utilized (see Supplementary Figure S2). At first, the compounds were screened against […] proteases (uPA, TMPRSS2, matriptase, tPA, thrombin, factor Xa) at 20 µM, and a cut-off value of 80% inhibition at this concentration was set, for the differentiation between nonactive (n.a.) and active inhibitors. Due to the reversible inhibition mechanism of the ketobenzothiazole derivates, the IC50 values were determined with Graphpad Prism 9, and afterwards converted to the corresponding Ki values for an adequate comparison between the inhibitory activities of the compounds toward all tested proteases. The Ki values were calculated using the Cheng–Prusoff equation [43].
(§2) Fluorometric inhibition assays
(§3) The inhibitory activities of the compounds against the proteases were determined by enzyme inhibition assays with fluorogenic or colorimetry-based substrates. The fluorescence, caused by cleaved AMC from the fluorogenic substrates (uPA, matriptase, TMPRSS2, thrombin), was measured in white flat-bottom 96-well plates from Greiner Bio-One using a Tecan Infinite F200 Pro plate reader. The absorption, caused by cleaved pNA from colorimetric substrates (factor Xa and tPA), was measured in transparent flat-bottom 96-well plates from Greiner Bio-One using a Tecan Spark 10M plate reader. All measurements with the main-target proteases (uPA and TMRPSS2) were performed as triplicates and with the off-target proteases (matriptase, factor Xa, tPA, thrombin) as duplicates. The substrates and the compounds were prepared as stock solutions in DMSO. Each well contained a total volume of 200 µL, consisting of 185 µL buffer, 5 µL inhibitor in DMSO or pure DMSO as negative control, 5 µL substrate in DMSO and 5 µL enzyme solution in buffer. Dilution series were prepared for the determination of the inhibition constants. The fluorescence signal and absorbance were measured every 30 s for 10 min at 25 or 37 °C with the corresponding excitation/emission (λex = 380 nm / λem = 460 nm) and absorbance (λabs = 405 nm) wavelengths, depending on the targeted protease. IC50 values for the reversible inhibitors were calculated with Graphpad Prism 9 by fitting the remaining enzymatic activity to the four parameter IC50 equation with Y [%] as the residual enzyme activity , Ymax as the maximum value of the dose response curve at inhibitor concentrations [I] = 0 µM, Ymin as the minimum value at high inhibitor concentrations and s as the hill coefficient.[1] The fluorescence progress curves and sigmoidal dose-response curve for inhibition of uPa by compound 38 is shown exemplary in Figure S2.
Figure S2: (left) Fluorescence progress curves for inhibition of uPa by cpd. 38. (right) Plot showing the respective IC50 value […]
(§4) Due to the dependence of the IC50 value on the substrate affinity and concentration, the Ki values were calculated with the Cheng-Prusoff equation, using the final substrate concentration [S] and the Michaelis-Menten constant KM, (2) for appropriate comparison of the inhibitory activities to the other enzymes and inhibitors.[1]
(§5) KM values were determined by fitting to the Michaelis-Menten equation using Graphpad Prism 9 with v [ΔF/min] as the substrate hydrolysis rate, vmax as the maximum slope of the dose-response curve, and the substrate [S] concentration.[1] The different substrates were serially diluted in DMSO. The measurement was done in analogy to the determination of the inhibitory activity, but with 5 µL pure DMSO instead of inhibitor solution. The fluorescence progress curves and Michaelis-Menten curve of the specific substrate of uPA is shown exemplarily […]
Figure S3: (left) Fluorescence progress curves of cleavage of Z-Gly-Gly-Arg-AMC by uPA. (right) Michaelis-Menten curve […]

TMPRSS2 = biological target: T2, TMPRSS2 (Homo sapiens, UniProt O15393); assay: fluorometric enzyme inhibition assay, TMPRSS2 (Boc-Gln-Ala-Arg-AMC); conditions: for Ki / Ki TMPRSS2: from IC50 by Cheng-Prusoff, n.a. = not active, <80% inhibition at 20 µM; for Selectivity index [SI] TMPRSS2: quotient Ki TMPRSS2 / Ki uPA
T2 construct: purchased Cusabio
Procedure: as §1, §2
as §3, with “S2. […]” for “S2.”
as §4
as §5, with “solution.” for “solution. The fluorescence progress curves and Michaelis-Menten curve of the specific substrate of uPA is shown exemplarily”
(§6) The following buffers and substrates were used for the respective assays: uPA (50 mM Tris HCl pH = 7.9, 150 mM […]
(§7) TMPRSS2 (25 mM Tris HCl pH = 8.0, 150 mM NaCl, 5 mM CaCl2, 0.001% TX-100, 100 µM Boc-Gln-Ala-Arg-AMC (KM: 68.63 ± 6.64 µM), 25 °C, 3 nM TMPRSS2)[3]; matriptase (50 mM Tris HCl pH = 8.0, 150 mM NaCl, 5 mM CaCl2, […]

matriptase = biological target: T3, matriptase (Homo sapiens, UniProt Q9Y5Y6); assay: fluorometric enzyme inhibition assay, matriptase (Boc-Leu-Arg-Arg-AMC); conditions: for Ki / Ki Matriptase: from IC50 by Cheng-Prusoff, n.a. = not active, <80% inhibition at 20 µM
T3 construct: catalytic domain of matriptase (uniport: Q9Y5Y6 aa 596–855); hexa-histidine (N); made in house; host or cells: Escherichia coli BL21 Gold (DE3)
T3 sequence (Q9Y5Y6 596-855): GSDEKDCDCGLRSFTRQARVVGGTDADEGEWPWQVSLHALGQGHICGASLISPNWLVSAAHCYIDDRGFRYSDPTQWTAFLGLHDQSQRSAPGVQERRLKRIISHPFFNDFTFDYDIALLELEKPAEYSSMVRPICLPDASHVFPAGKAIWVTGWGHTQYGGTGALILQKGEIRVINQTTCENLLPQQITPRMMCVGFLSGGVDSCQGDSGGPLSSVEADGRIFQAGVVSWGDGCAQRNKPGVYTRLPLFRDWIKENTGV
Procedure: as §1, §2
as §3, with “S2. […]” for “S2.”
as §4
as §5, with “solution.” for “solution. The fluorescence progress curves and Michaelis-Menten curve of the specific substrate of uPA is shown exemplarily”
as §6, §7

tPA = biological target: T4, tPA (Homo sapiens, UniProt P00750); assay: colorimetric enzyme inhibition assay, tPA (N-methylsulfonyl-D-Phe-Gly-Arg-pNA); conditions: from IC50 by Cheng-Prusoff; n.a. = not active, <80% inhibition at 20 µM
T4 construct: purchased Sigma Aldrich
Procedure: as §1, §2
as §3, with “S2. […]” for “S2.”
as §4
KM values were determined by fitting to the Michaelis-Menten equation using Graphpad Prism 9 with v [ΔF/min] as the substrate hydrolysis rate, vmax as the maximum slope of the dose-response curve, and the substrate [S] concentration.[1] The different substrates were serially diluted in DMSO. […]

thrombin = biological target: T5, thrombin (Homo sapiens, UniProt P00734); assay: fluorometric enzyme inhibition assay, thrombin (Z-Gly-Gly-Arg-AMC); conditions: for Ki / Ki Thrombin: from IC50 by Cheng-Prusoff, n.a. = not active, <80% inhibition at 20 µM; for Selectivity index [SI] Thrombin: quotient Ki thrombin / Ki uPA
T5 construct: purchased Bio-techne
Procedure: as §1, §2
as §3, with “S2. […]” for “S2.”
as §4
as §5, with “solution.” for “solution. The fluorescence progress curves and Michaelis-Menten curve of the specific substrate of uPA is shown exemplarily”
as §6, §7

factor Xa = biological target: T6, factor Xa (Homo sapiens, UniProt P00742); assay: colorimetric enzyme inhibition assay, factor Xa (Z-D-Arg-Gly-Arg-pNA); conditions: for Ki / Ki Factor Xa: from IC50 by Cheng-Prusoff, n.a. = not active, <80% inhibition at 20 µM; for Selectivity index [SI] Factor Xa: quotient Ki factor Xa / Ki uPA
T6 construct: purchased Bio-techne
Procedure: as §1, §2
as §3, with “S2. […]” for “S2.”
as §4
as §5, with “solution.” for “solution. The fluorescence progress curves and Michaelis-Menten curve of the specific substrate of uPA is shown exemplarily”
as §6, §7

[1] = quotient Ki matriptase / Ki uPA
[2] = quotient Ki matriptase / Ki TMPRSS2

T2 sequence (O15393 whole entry): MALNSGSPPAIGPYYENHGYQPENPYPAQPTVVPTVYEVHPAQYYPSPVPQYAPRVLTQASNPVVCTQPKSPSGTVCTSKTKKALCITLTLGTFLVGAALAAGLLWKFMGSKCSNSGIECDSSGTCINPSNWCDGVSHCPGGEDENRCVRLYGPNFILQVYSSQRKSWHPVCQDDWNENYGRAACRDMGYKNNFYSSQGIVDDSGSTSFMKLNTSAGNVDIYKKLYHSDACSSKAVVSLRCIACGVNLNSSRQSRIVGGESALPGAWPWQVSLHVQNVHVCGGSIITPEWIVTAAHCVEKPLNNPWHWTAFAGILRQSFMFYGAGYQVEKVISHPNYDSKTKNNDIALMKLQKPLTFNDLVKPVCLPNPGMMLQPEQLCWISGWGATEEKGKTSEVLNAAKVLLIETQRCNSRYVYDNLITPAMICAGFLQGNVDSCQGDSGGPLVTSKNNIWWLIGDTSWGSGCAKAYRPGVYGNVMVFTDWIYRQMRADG
T6 sequence (P00742 235-488 limits assumed): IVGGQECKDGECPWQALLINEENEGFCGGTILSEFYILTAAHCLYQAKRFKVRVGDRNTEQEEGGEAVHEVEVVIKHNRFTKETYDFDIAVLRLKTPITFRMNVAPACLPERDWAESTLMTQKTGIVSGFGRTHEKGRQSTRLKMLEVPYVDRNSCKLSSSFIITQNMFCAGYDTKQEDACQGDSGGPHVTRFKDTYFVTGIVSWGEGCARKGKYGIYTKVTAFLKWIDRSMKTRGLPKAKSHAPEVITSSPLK
T6 sequence (P00742 41-179 partner limits assumed): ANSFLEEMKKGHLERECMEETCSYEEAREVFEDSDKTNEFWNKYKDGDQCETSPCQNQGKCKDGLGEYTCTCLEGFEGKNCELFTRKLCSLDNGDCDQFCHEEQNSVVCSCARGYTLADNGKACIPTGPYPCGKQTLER
T4 sequence (P00750 36-562): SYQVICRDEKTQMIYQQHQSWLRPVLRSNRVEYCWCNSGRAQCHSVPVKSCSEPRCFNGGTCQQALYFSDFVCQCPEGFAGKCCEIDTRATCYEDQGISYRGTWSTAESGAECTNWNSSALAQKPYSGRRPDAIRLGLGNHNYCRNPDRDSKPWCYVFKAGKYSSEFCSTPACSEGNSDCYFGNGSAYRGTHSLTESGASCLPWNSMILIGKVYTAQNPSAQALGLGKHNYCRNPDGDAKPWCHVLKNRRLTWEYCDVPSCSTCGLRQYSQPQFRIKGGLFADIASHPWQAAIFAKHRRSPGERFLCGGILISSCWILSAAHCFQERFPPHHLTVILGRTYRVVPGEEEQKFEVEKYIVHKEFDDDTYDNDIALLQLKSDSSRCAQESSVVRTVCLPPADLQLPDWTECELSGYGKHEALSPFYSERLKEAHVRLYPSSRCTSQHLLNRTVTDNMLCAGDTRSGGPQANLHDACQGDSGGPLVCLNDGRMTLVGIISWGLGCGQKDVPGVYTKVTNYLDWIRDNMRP

| SMILES | Ki (uPA) | Ki (TMPRSS2) | Selectivity index [SI] TMPRSS2 (TMPRSS2) | Ki (matriptase) | Selectivity index [SI] Matriptase (matriptase; [1]) | Ki tPA (tPA) | Selectivity index [SI] uPA (uPA) | Selectivity index [SI] Matriptase (matriptase; [2]) | further results |
| --- | --- | --- | --- | --- | --- | --- | --- | --- | --- |
| CC(=O)NCC(=O)NC(C(=O)NC(C)C(=O)NC(CCCNC(=N)N)C(=O)c1nc2ccccc2s1)C(C)O [Compound 14a, Ac-Gly-L-Thr-L-Ala-L-Arg-kbt] | 0.141 ± 0.028 µM | 0.005 ± 0.001 µM | 0.04 | 0.032 ± 0.014 µM | 0.2 | did not show inhibition |  |  | Ki (thrombin): 4.39 ± 1.48 µM; Selectivity index [SI] Thrombin (thrombin): 31; Ki (factor Xa): 3.36 ± 0.32 µM |
| CC(=O)NCC(=O)NC(C(=O)NC(C)C(=O)NC(CCCNC(=N)N)C(=O)c1nc2ccc(F)cc2s1)C(C)O (stereo not shown) [Compound 14b] | 0.388 ± 0.095 µM |  |  |  |  |  |  |  |  |
| CC(=O)NCC(=O)NC(C(=O)NC(C)C(=O)NC(CCCNC(=N)N)C(=O)c1nc2ccc(Cl)cc2s1)C(C)O (stereo not shown) [Compound 14c] | 0.082 ± 0.006 µM | 0.009 ± 0.001 µM | 0.1 | 0.059 ± 0.009 µM | 0.7 |  |  |  | Ki (thrombin): 0.456 ± 0.072 µM; Selectivity index [SI] Thrombin (thrombin): 5; Ki (factor Xa): 2.45 ± 0.099 µM; Selectivity index [SI] Factor Xa (factor Xa): 30 |
| CC(=O)NCC(=O)NC(C(=O)NC(C)C(=O)NC(CCCNC(=N)N)C(=O)c1nc2ccc(Br)cc2s1)C(C)O (stereo not shown) [Compound 14d] | 0.06 ± 0.015 µM | 0.006 ± 0.001 µM | 0.1 | 0.038 ± 0.002 µM | 0.6 |  |  |  | Ki (thrombin): 0.45 ± 0.069 µM; Selectivity index [SI] Thrombin (thrombin): 8; Ki (factor Xa): 2.85 ± 0.844 µM; Selectivity index [SI] Factor Xa (factor Xa): 47 |
| COc1ccc2nc(C(=O)C(CCCNC(=N)N)NC(=O)C(C)NC(=O)C(NC(=O)CNC(C)=O)C(C)O)sc2c1 (stereo not shown) [Compound 14e] | 0.178 ± 0.019 µM |  |  |  |  |  |  |  |  |
| CC(=O)NCC(=O)NC(C(=O)NC(C)C(=O)NC(CCCNC(=N)N)C(=O)c1nc2c(s1)CCCC2)C(C)O (stereo not shown) [Compound 15] | 0.435 ± 0.033 µM |  |  |  |  |  |  |  |  |
| CC(=O)NCC(=O)NC(C(=O)NC(C)C(=O)NC(CCCCNC(=N)N)C(=O)c1nc2ccccc2s1)C(C)O (stereo not shown) [Compound 20] |  |  |  |  |  | did not show inhibition |  |  | Ki uPA (uPA): did not show inhibition; Ki TMPRSS2 (TMPRSS2): did not show inhibition; Ki Matriptase (matriptase): did not show inhibition; Ki Thrombin (thrombin): did not show inhibition; Ki Factor Xa (factor Xa): did not show inhibition |
| CC(=O)NCC(=O)NC(C(=O)NC(C)C(=O)NC(Cc1ccc(NC(=N)N)cc1)C(=O)c1nc2ccccc2s1)C(C)O (stereo not shown) [Compound 29] | 0.029 ± 0.002 µM | 0.01 ± 0.004 µM | 0.3 | 0.132 µM and 0.133 µM | 4 | did not inhibit |  |  | Ki Thrombin (thrombin): did not inhibit; Ki Factor Xa (factor Xa): did not inhibit |
| CC(=O)N[C@@H](CC(N)=O)C(=O)N1CCC[C@H]1C(=O)N[C@@H](Cc1ccc(NC(=N)N)cc1)C(=O)c1nc2ccccc2s1 [Compound 30] | 0.479 ± 0.017 µM | 0.005 ± 0.001 µM |  | 0.06 ± 0.008 µM |  |  | 96 | 12 |  |
| CC(=O)N[C@@H](CC(N)=O)C(=O)N[C@@H](Cc1ccccc1)C(=O)N[C@@H](Cc1ccc(NC(=N)N)cc1)C(=O)c1nc2ccccc2s1 [Compound 31] | 3.57 ± 0.421 µM | 0.0004 ± 0.0001 µM |  | 0.252 ± 0.067 µM |  |  | > 5000 | 630 |  |
| CC(=O)N[C@@H](CC(N)=O)C(=O)N[C@@H](CC1CCCCC1)C(=O)N[C@@H](Cc1ccc(NC(=N)N)cc1)C(=O)c1nc2ccccc2s1 [Compound 32] | 2.69 ± 0.217 µM | 0.034 ± 0.004 µM |  | 3.33 ± 1.14 µM |  |  | 79 | 98 |  |
| CC(=O)N[C@@H](CC(N)=O)C(=O)N1CCC[C@H]1C(=O)N[C@@H](CC1CCC(NC(=N)N)CC1)C(=O)c1nc2ccccc2s1 (stereo partly shown) [Compound 39] | 0.936 ± 0.1 µM | 0.044 ± 0.007 µM |  | 1.2 ± 0.181 µM |  |  | 21 | 27 |  |
| CC(=O)NCC(=O)N[C@H](C(=O)N[C@@H](C)C(=O)N[C@@H](Cc1cccc(NC(=N)N)c1)C(=O)c1nc2ccccc2s1)[C@H](C)O [Compound 45] |  |  |  |  |  | did not show inhibition |  |  | Ki uPA (uPA): did not show inhibition; Ki TMPRSS2 (TMPRSS2): did not show inhibition; Ki Matriptase (matriptase): did not show inhibition; Ki Thrombin (thrombin): did not show inhibition; Ki Factor Xa (factor Xa): did not show inhibition |
